Measurements as given in patent US6462055B2, “Alpha-methylbenzyl-containing thiourea inhibitors of herpes viruses containing a phenylenediamine group” (Wyeth, priority 1998, dated 2002).
In brackets after ≈: the same amount, converted by molar mass.

The compounds below were run on VZV strain Ellen (assay: VZV Antiviral (ELISA) Assay in human foreskin fibroblast cells). Conditions: not given.
Type: cell-based, varicella-zoster virus
How it was run: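 Antiviral IC50 is derived by comparing fluorescence with and without compound after a three-day culture of VZV-infected plus uninfected foreskin fibroblasts. Replication is quantified by ELISA against glycoprotein II, using a β-galactosidase secondary and methyl umbelliferyl-β-D-galactoside.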

SMILES	IC50 (ug/ml) VZV [µg/mL]
NNC(=O)c1cccc(NC(=S)Nc2ccc(NC(=O)c3ccccc3F)cc2)c1 [Example 463]	>10
Nc1c(Cl)cccc1NC(=S)Nc1ccc(NC(=O)c2c(F)cccc2F)cc1 [Example 465]	>10
O=C(Nc1ccc(NC(=S)Nc2cccc(O)c2)cc1)c1ccccc1F [Example 475]	>10
CC(=O)Nc1cccc(NC(=S)Nc2ccc(NC(=O)c3ccccc3F)cc2)c1 [Example 477]	>10
O=C(Nc1ccc(NC(=S)Nc2ccc3scnc3c2)cc1)c1ccccc1F [Example 484]	>10
CN(C)c1ccc(Cl)cc1NC(=S)Nc1ccc(NC(=O)c2ccccc2F)cc1 [Example 490]	>10
CC(N=[N+]=[N-])c1ccc(NC(=S)Nc2ccc(NC(=O)c3ccccc3F)cc2)cc1Cl (stereo not drawn) [Example 492]	>10
Nc1nccc(-c2ccc(NC(=S)Nc3ccc(NC(=O)c4ccccc4F)cc3)cc2Cl)n1 [Example 502]	>10
CN(C)c1c(Cl)cccc1NC(=S)Nc1ccc(NC(=O)c2c(F)cccc2F)cc1 [Example 504]	4.5 (≈ 9.76 µM)
O=C(Nc1ccc(NC(=S)NCc2cccc(Cl)c2)cc1)c1ccccc1F [Example 511]	>10
O=C(Nc1ccc(NC(=S)Nc2cc(C(F)(F)F)cc(C(F)(F)F)c2)cc1)c1ccccc1F [Example 517]	>10
Nc1c(Cl)cc(NC(=S)Nc2ccc(NC(=O)c3ccccc3F)cc2)cc1Cl [Example 518]	>10
Nc1c(Br)cc(NC(=S)Nc2ccc(NC(=O)c3ccccc3F)cc2)cc1Br [Example 519]	>10
CN(C)c1cc(Cl)cc(NC(=S)Nc2ccc(NC(=O)c3ccccc3F)cc2)c1 [Example 523]	4 (≈ 9.03 µM)
O=C(Nc1ccc(NC(=S)Nc2ccc3[nH]nnc3c2)cc1)c1c(F)cccc1F [Example 527]	>10
O=C(Nc1ccc(NC(=S)Nc2cc(Br)cc(C(F)(F)F)c2)cc1)c1ccccc1F [Example 531]	6 (≈ 11.7 µM)
O=C(Nc1ccc(NC(=S)NCc2ccccc2)cc1)c1ccccc1F [Example 536]	>10
O=C(Nc1ccc(NC(=S)NCc2ccc(Cl)c(Cl)c2)cc1)c1ccccc1F [Example 538]	10 (≈ 22.3 µM)
O=C(Nc1ccc(NC(=S)NCc2ccc3c(c2)OCO3)cc1)c1ccccc1F [Example 540]	>10
O=C(Nc1ccc(NC(=S)NCc2cc(C(F)(F)F)cc(C(F)(F)F)c2)cc1)c1ccccc1F [Example 543]	>10
O=C(Nc1ccc(NC(=S)Nc2ccc(OC(F)(F)F)c(Br)c2)cc1)c1ccccc1F [Example 549]	>10

Same assay, conditions: 10 ug/ml

SMILES	% inhibition 10 ug/ml VZV [%]
NNC(=O)c1cccc(NC(=S)Nc2ccc(NC(=O)c3ccccc3F)cc2)c1 [Example 463]	19
Nc1c(Cl)cccc1NC(=S)Nc1ccc(NC(=O)c2c(F)cccc2F)cc1 [Example 465]	31
O=C(Nc1ccc(NC(=S)Nc2cccc(O)c2)cc1)c1ccccc1F [Example 475]	28
CC(=O)Nc1cccc(NC(=S)Nc2ccc(NC(=O)c3ccccc3F)cc2)c1 [Example 477]	15
O=C(Nc1ccc(NC(=S)Nc2ccc3scnc3c2)cc1)c1ccccc1F [Example 484]	28
CN(C)c1ccc(Cl)cc1NC(=S)Nc1ccc(NC(=O)c2ccccc2F)cc1 [Example 490]	68
CC(N=[N+]=[N-])c1ccc(NC(=S)Nc2ccc(NC(=O)c3ccccc3F)cc2)cc1Cl (stereo not drawn) [Example 492]	32
Nc1nccc(-c2ccc(NC(=S)Nc3ccc(NC(=O)c4ccccc4F)cc3)cc2Cl)n1 [Example 502]	13
CN(C)c1c(Cl)cccc1NC(=S)Nc1ccc(NC(=O)c2c(F)cccc2F)cc1 [Example 504]	99
O=C(Nc1ccc(NC(=S)NCc2cccc(Cl)c2)cc1)c1ccccc1F [Example 511]	10
O=C(Nc1ccc(NC(=S)Nc2cc(C(F)(F)F)cc(C(F)(F)F)c2)cc1)c1ccccc1F [Example 517]	5
Nc1c(Cl)cc(NC(=S)Nc2ccc(NC(=O)c3ccccc3F)cc2)cc1Cl [Example 518]	32
Nc1c(Br)cc(NC(=S)Nc2ccc(NC(=O)c3ccccc3F)cc2)cc1Br [Example 519]	18
CN(C)c1cc(Cl)cc(NC(=S)Nc2ccc(NC(=O)c3ccccc3F)cc2)c1 [Example 523]	75
O=C(Nc1ccc(NC(=S)Nc2ccc3[nH]nnc3c2)cc1)c1c(F)cccc1F [Example 527]	20

Each compound was assayed on HCMV recombinant mutant virus (RV145) (assay: microbe, parasite or virus in culture). Conditions: HCMV.
Type: cell-based, human cytomegalovirus
How it was run: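 Human foreskin fibroblasts infected with HCMV RV145 carrying a viral-promoter-driven beta-glucuronidase gene, in presence of compound. At 96 h post-infection, lysates assayed for beta-glucuronidase with colorimetric or fluorogenic glucuronide substrate as replication read-out. IC50 estimated from varying inhibitor amounts.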

SMILES	IC50 ug/ml HCMV [µg/mL]
NNC(=O)c1cccc(NC(=S)Nc2ccc(NC(=O)c3ccccc3F)cc2)c1 [Example 463]	>10
Nc1c(Cl)cccc1NC(=S)Nc1ccc(NC(=O)c2c(F)cccc2F)cc1 [Example 465]	>10
O=C(Nc1ccc(NC(=S)Nc2cccc(O)c2)cc1)c1ccccc1F [Example 475]	>10
CC(=O)Nc1cccc(NC(=S)Nc2ccc(NC(=O)c3ccccc3F)cc2)c1 [Example 477]	>10
O=C(Nc1ccc(NC(=S)Nc2ccc3scnc3c2)cc1)c1ccccc1F [Example 484]	>10
CN(C)c1ccc(Cl)cc1NC(=S)Nc1ccc(NC(=O)c2ccccc2F)cc1 [Example 490]	2.5 (≈ 5.64 µM)
CC(N=[N+]=[N-])c1ccc(NC(=S)Nc2ccc(NC(=O)c3ccccc3F)cc2)cc1Cl (stereo not drawn) [Example 492]	2 (≈ 4.26 µM)
Nc1nccc(-c2ccc(NC(=S)Nc3ccc(NC(=O)c4ccccc4F)cc3)cc2Cl)n1 [Example 502]	1.8 (≈ 3.65 µM)
CN(C)c1c(Cl)cccc1NC(=S)Nc1ccc(NC(=O)c2c(F)cccc2F)cc1 [Example 504]	2 (≈ 4.34 µM)
O=C(Nc1ccc(NC(=S)NCc2cccc(Cl)c2)cc1)c1ccccc1F [Example 511]	>10
O=C(Nc1ccc(NC(=S)Nc2cc(C(F)(F)F)cc(C(F)(F)F)c2)cc1)c1ccccc1F [Example 517]	1.1 (≈ 2.19 µM)
Nc1c(Cl)cc(NC(=S)Nc2ccc(NC(=O)c3ccccc3F)cc2)cc1Cl [Example 518]	4 (≈ 8.9 µM)
Nc1c(Br)cc(NC(=S)Nc2ccc(NC(=O)c3ccccc3F)cc2)cc1Br [Example 519]	1.7 (≈ 3.16 µM)
CN(C)c1cc(Cl)cc(NC(=S)Nc2ccc(NC(=O)c3ccccc3F)cc2)c1 [Example 523]	3.2 (≈ 7.22 µM)
O=C(Nc1ccc(NC(=S)Nc2ccc3[nH]nnc3c2)cc1)c1c(F)cccc1F [Example 527]	>10
O=C(Nc1ccc(NC(=S)Nc2cc(Br)cc(C(F)(F)F)c2)cc1)c1ccccc1F [Example 531]	5 (≈ 9.76 µM)
O=C(Nc1ccc(NC(=S)NCc2ccccc2)cc1)c1ccccc1F [Example 536]	>10
O=C(Nc1ccc(NC(=S)NCc2ccc(Cl)c(Cl)c2)cc1)c1ccccc1F [Example 538]	>10
O=C(Nc1ccc(NC(=S)NCc2ccc3c(c2)OCO3)cc1)c1ccccc1F [Example 540]	>0.5
O=C(Nc1ccc(NC(=S)NCc2cc(C(F)(F)F)cc(C(F)(F)F)c2)cc1)c1ccccc1F [Example 543]	0.3 (≈ 0.582 µM)
O=C(Nc1ccc(NC(=S)Nc2ccc(OC(F)(F)F)c(Br)c2)cc1)c1ccccc1F [Example 549]	>10

Each compound was assayed on HSV-1 (assay: HSV Antiviral (ELISA) Assay in Vero cells). Conditions: HSV-1, Vero cells.
Type: cell-based, herpes simplex virus type 1
How it was run: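 Viral replication was quantified by cell-fixed ELISA for HSV glycoprotein D, using a β-galactosidase reporter and fluorogenic umbelliferyl substrate, about 24 h after HSV-1 infection (MOI 0.006) of Vero cells. Compounds, at several concentrations, were added 30 min pre-infection. IC50 was derived from fluorescence relative to the compound-free signal.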

SMILES	IC50 (ug/ml) HSV [µg/mL]
NNC(=O)c1cccc(NC(=S)Nc2ccc(NC(=O)c3ccccc3F)cc2)c1 [Example 463]	>10
Nc1c(Cl)cccc1NC(=S)Nc1ccc(NC(=O)c2c(F)cccc2F)cc1 [Example 465]	>10
O=C(Nc1ccc(NC(=S)Nc2cccc(O)c2)cc1)c1ccccc1F [Example 475]	5 (≈ 13.1 µM)
CC(=O)Nc1cccc(NC(=S)Nc2ccc(NC(=O)c3ccccc3F)cc2)c1 [Example 477]	>10
O=C(Nc1ccc(NC(=S)Nc2ccc3scnc3c2)cc1)c1ccccc1F [Example 484]	0.4 (≈ 0.947 µM)
CN(C)c1ccc(Cl)cc1NC(=S)Nc1ccc(NC(=O)c2ccccc2F)cc1 [Example 490]	1 (≈ 2.26 µM)
CC(N=[N+]=[N-])c1ccc(NC(=S)Nc2ccc(NC(=O)c3ccccc3F)cc2)cc1Cl (stereo not drawn) [Example 492]	>10
Nc1nccc(-c2ccc(NC(=S)Nc3ccc(NC(=O)c4ccccc4F)cc3)cc2Cl)n1 [Example 502]	>10
CN(C)c1c(Cl)cccc1NC(=S)Nc1ccc(NC(=O)c2c(F)cccc2F)cc1 [Example 504]	6 (≈ 13 µM)
O=C(Nc1ccc(NC(=S)NCc2cccc(Cl)c2)cc1)c1ccccc1F [Example 511]	>10
O=C(Nc1ccc(NC(=S)Nc2cc(C(F)(F)F)cc(C(F)(F)F)c2)cc1)c1ccccc1F [Example 517]	>10
Nc1c(Cl)cc(NC(=S)Nc2ccc(NC(=O)c3ccccc3F)cc2)cc1Cl [Example 518]	0.25 (≈ 0.556 µM)
Nc1c(Br)cc(NC(=S)Nc2ccc(NC(=O)c3ccccc3F)cc2)cc1Br [Example 519]	0.4 (≈ 0.743 µM)
CN(C)c1cc(Cl)cc(NC(=S)Nc2ccc(NC(=O)c3ccccc3F)cc2)c1 [Example 523]	0.6 (≈ 1.35 µM)
O=C(Nc1ccc(NC(=S)Nc2ccc3[nH]nnc3c2)cc1)c1c(F)cccc1F [Example 527]	>10
O=C(Nc1ccc(NC(=S)Nc2cc(Br)cc(C(F)(F)F)c2)cc1)c1ccccc1F [Example 531]	>10
O=C(Nc1ccc(NC(=S)NCc2ccccc2)cc1)c1ccccc1F [Example 536]	>10
O=C(Nc1ccc(NC(=S)NCc2ccc(Cl)c(Cl)c2)cc1)c1ccccc1F [Example 538]	>10
O=C(Nc1ccc(NC(=S)NCc2ccc3c(c2)OCO3)cc1)c1ccccc1F [Example 540]	>10
O=C(Nc1ccc(NC(=S)NCc2cc(C(F)(F)F)cc(C(F)(F)F)c2)cc1)c1ccccc1F [Example 543]	>10
O=C(Nc1ccc(NC(=S)Nc2ccc(OC(F)(F)F)c(Br)c2)cc1)c1ccccc1F [Example 549]	>10
